According to PubChem BioAssay AID1259407 (Chemical Carcinogenesis Research Information System (CCRIS), 2018):
Active and inactive are the calls of the source. How the calls were made is not given here.

Test system: CCRIS mutagenicity, Ames/micronucleus/aberration tests
Assay: CCRIS mutagenicity studies

SMILES: CCCCC(CC)COC(=O)c1ccccc1C(=O)OCC(CC)CCCC (stereo not drawn)
- mutagenic call (Test System: AMES SALMONELLA TYPHIMURIUM, Strain/Indicator: TA1535, Metabolic Activation: RAT LIVER S-9, PHENOBARBITAL AND BETA-NAPHTHOFLAVONE, Method: PREINCUBATION): inactive; negative
- mutagenic call (Test System: AMES SALMONELLA TYPHIMURIUM, Strain/Indicator: TA1535, Metabolic Activation: RAT, LIVER, S-9, AROCLOR 1254 (10%), Method: PREINCUBATION): inactive; negative
- mutagenic call (Test System: AMES SALMONELLA TYPHIMURIUM, Strain/Indicator: TA1535, Metabolic Activation: RAT, LIVER, S-9, AROCLOR 1254, Method: STANDARD PLATE): inactive; negative
- mutagenic call (Test System: AMES SALMONELLA TYPHIMURIUM, Strain/Indicator: TA1537, Metabolic Activation: HAMSTER, LIVER, S-9, AROCLOR 1254 (10%), Method: PREINCUBATION): inactive; negative
- mutagenic call (Test System: AMES SALMONELLA TYPHIMURIUM, Strain/Indicator: TA1537, Metabolic Activation: NONE, Method: FLUCTUATION (MICROTITER)): inactive; negative
- mutagenic call (Test System: AMES SALMONELLA TYPHIMURIUM, Strain/Indicator: TA1537, Metabolic Activation: NONE, Method: PREINCUBATION): inactive; negative
- mutagenic call (Test System: AMES SALMONELLA TYPHIMURIUM, Strain/Indicator: TA1537, Metabolic Activation: NONE, Method: STANDARD PLATE): inactive; negative
- mutagenic call (Test System: AMES SALMONELLA TYPHIMURIUM, Strain/Indicator: TA1537, Metabolic Activation: RAT LIVER S-9, AROCLOR 1254, Method: FLUCTUATION (MICROTITER)): inactive; negative
- mutagenic call (Test System: AMES SALMONELLA TYPHIMURIUM, Strain/Indicator: TA1537, Metabolic Activation: RAT LIVER S-9, PHENOBARBITAL AND BETA-NAPHTHOFLAVONE, Method: PREINCUBATION): inactive; negative
- mutagenic call (Test System: AMES SALMONELLA TYPHIMURIUM, Strain/Indicator: TA1537, Metabolic Activation: RAT, LIVER, S-9, AROCLOR 1254 (10%), Method: PREINCUBATION): inactive; negative
- mutagenic call (Test System: AMES SALMONELLA TYPHIMURIUM, Strain/Indicator: TA1537, Metabolic Activation: RAT, LIVER, S-9, AROCLOR 1254, Method: STANDARD PLATE): inactive; negative
- mutagenic call (Test System: AMES SALMONELLA TYPHIMURIUM, Strain/Indicator: TA1538, Metabolic Activation: NONE, Method: STANDARD PLATE): inactive; negative
- mutagenic call (Test System: AMES SALMONELLA TYPHIMURIUM, Strain/Indicator: TA1538, Metabolic Activation: RAT, LIVER, S-9, AROCLOR 1254, Method: STANDARD PLATE): inactive; negative
- mutagenic call (Test System: AMES SALMONELLA TYPHIMURIUM, Strain/Indicator: TA2638, Metabolic Activation: RAT LIVER S-9, PHENOBARBITAL AND 5,6-BENZOFLAVONE, Method: STANDARD PLATE): inactive; negative
- mutagenic call (Test System: AMES SALMONELLA TYPHIMURIUM, Strain/Indicator: TA7001, Metabolic Activation: NONE, Method: FLUCTUATION (MICROTITER)): inactive; negative
- mutagenic call (Test System: AMES SALMONELLA TYPHIMURIUM, Strain/Indicator: TA7001, Metabolic Activation: RAT LIVER S-9, AROCLOR 1254, Method: FLUCTUATION (MICROTITER)): inactive; negative
- mutagenic call (Test System: AMES SALMONELLA TYPHIMURIUM, Strain/Indicator: TA7002, Metabolic Activation: NONE, Method: FLUCTUATION (MICROTITER)): inactive; negative
- mutagenic call (Test System: AMES SALMONELLA TYPHIMURIUM, Strain/Indicator: TA7002, Metabolic Activation: RAT LIVER S-9, AROCLOR 1254, Method: FLUCTUATION (MICROTITER)): inactive; negative
- mutagenic call (Test System: AMES SALMONELLA TYPHIMURIUM, Strain/Indicator: TA7003, Metabolic Activation: NONE, Method: FLUCTUATION (MICROTITER)): inactive; negative
- mutagenic call (Test System: AMES SALMONELLA TYPHIMURIUM, Strain/Indicator: TA7003, Metabolic Activation: RAT LIVER S-9, AROCLOR 1254, Method: FLUCTUATION (MICROTITER)): inactive; negative
- mutagenic call (Test System: AMES SALMONELLA TYPHIMURIUM, Strain/Indicator: TA7004, Metabolic Activation: NONE, Method: FLUCTUATION (MICROTITER)): inactive; negative
- mutagenic call (Test System: AMES SALMONELLA TYPHIMURIUM, Strain/Indicator: TA7004, Metabolic Activation: RAT LIVER S-9, AROCLOR 1254, Method: FLUCTUATION (MICROTITER)): inactive; negative
- mutagenic call (Test System: AMES SALMONELLA TYPHIMURIUM, Strain/Indicator: TA7005, Metabolic Activation: NONE, Method: FLUCTUATION (MICROTITER)): inactive; negative
- mutagenic call (Test System: AMES SALMONELLA TYPHIMURIUM, Strain/Indicator: TA7005, Metabolic Activation: RAT LIVER S-9, AROCLOR 1254, Method: FLUCTUATION (MICROTITER)): inactive; negative
- mutagenic call (Test System: AMES SALMONELLA TYPHIMURIUM, Strain/Indicator: TA7006, Metabolic Activation: NONE, Method: FLUCTUATION (MICROTITER)): inactive; negative
- mutagenic call (Test System: AMES SALMONELLA TYPHIMURIUM, Strain/Indicator: TA7006, Metabolic Activation: RAT LIVER S-9, AROCLOR 1254, Method: FLUCTUATION (MICROTITER)): inactive; negative
- mutagenic call (Test System: E. COLI, Strain/Indicator: WP2 (PKM101), Metabolic Activation: RAT LIVER S-9, PHENOBARBITAL, AND 5,6-BENZOFLAVONE, Method: STANDARD PLATE): inactive; negative
- mutagenic call (Test System: E. COLI, Strain/Indicator: WP2 UVRA (PKM101), Metabolic Activation: RAT LIVER S-9, PHENOBARBITAL AND 5,6-BENZOFLAVONE, Method: STANDARD PLATE): inactive; negative
- mutagenic call (Test System: E.COLI, Strain/Indicator: WP2UVRA, Metabolic Activation: NONE, Method: PREINCUBATION): inactive; negative
- mutagenic call (Test System: E.COLI, Strain/Indicator: WP2UVRA, Metabolic Activation: RAT LIVER S-9, PHENOBARBITAL AND BETA-NAPHTHOFLAVONE, Method: PREINCUBATION): inactive; negative
- mutagenic call (Test System: MOUSE LYMPHOMA, Strain/Indicator: L5178Y (TK+/+)/OUABAIN, Metabolic Activation: NONE, Method: SUSPENSION/PLATE): inactive; negative
- mutagenic call (Test System: MOUSE LYMPHOMA, Strain/Indicator: L5178Y (TK+/+)/OUABAIN, Metabolic Activation: RAT LIVER S-9, AROCLOR 1254, Method: SUSPENSION/PLATE): inactive; negative
- mutagenic call (Test System: MOUSE LYMPHOMA, Strain/Indicator: L5178Y (TK+/-)/TRIFLUROTHYMIDINE, Metabolic Activation: NONE, Method: SUSPENSION/PLATE): inactive; negative
- mutagenic call (Test System: MOUSE LYMPHOMA, Strain/Indicator: L5178Y (TK+/-)/TRIFLUROTHYMIDINE, Metabolic Activation: RAT LIVER S-9, AROCLOR 1254, Method: SUSPENSION/PLATE): inactive; negative
- mutagenic call (Test System: MOUSE LYMPHOMA, Strain/Indicator: L5178Y (TK+/TK-), Metabolic Activation: NONE, Method: SUSPENSION/PLATE): inactive; negative
- mutagenic call (Test System: MOUSE LYMPHOMA, Strain/Indicator: L5178Y (TK+/TK-), Metabolic Activation: RAT, LIVER, S-9, AROCLOR 1254, Method: SUSPENSION/PLATE): active; positive
- mutagenic call (Test System: MOUSE LYMPHOMA, Strain/Indicator: L5178Y (TK+/TK-), Metabolic Activation: RAT, LIVER, S-9, Method: SUSPENSION/PLATE): inactive; negative
- mutagenic call (Test System: UDS RAT HEPATOCYTES, Strain/Indicator: THY INCORP, Metabolic Activation: NONE, Method: LIQUID SCINTILLATION COUNTING): active; positive
